Patent publication US5279824A, “Pharmaceutical formulation containing heparin and endo-beta-glucuronidase, useful for the treatment of thrombosis” (Merck Patent GmbH, priority 1988, dated 1994)
Blank lines part the entries; values can stand above or below the substance they belong to.

Columns and labels:
leech hyaluronidase [1] = assay: Reducing sugar assay of leech hyaluronidase preincubated with heparin; format: biochemical; conditions: heparin up to 2500 USP/ml; preincubated one hour at 25° C.; enzyme 68 IU/ml; FIG. 1
Protocol: (§1) Leech hyaluronidase (68 IU/ml was preincubated for one hour at 25° C. in the presence of concentrations of heparin (0-2500 USP/1 ml) in 20 mM methanesulphonic acid (MES), 0.1M NaCl, pH 5.0 buffer and then added to hyaluronic acid (5 mg/ml) and the incubation continued for one hour at 37° C. The generation of reducing sugars was determined by terminating the reactions by the addition of 1:1 3,5-dinitrosalicylic acid reagent (100 ml: 5% w/v dinitrosalicylic acid in 2M NaOH plus 250 ml: 60% w/v sodium potassium tartrate in water, made up to 500 ml with water) and heating for 5 min in vigorously boiling water. After heating, assay tubes were rapidly cooled to ambient temperature and absorbances at 540 nm measured spectrophotometrically. Suitable blanks and no-enzyme controls were included in the assay. The results are expressed as a percentage of the absorbances obtained in control incubations containing no heparin.

[2] = test system: mammalian testicular hyaluronidase; assay: Reducing sugar assay of mammalian testicular hyaluronidase preincubated with heparin; format: biochemical; conditions: heparin above 3 USP/ml; MTH 75 IU/ml; preincubated one hour at 25° C.
Protocol: as §1, with “heparin. […] MTH (75 IU/ml) was preincubated for one hour at 25° C. with heparin (0 to 250 USP/ml) in 20 mM MES, 0.1M NaCl pH 5.0, buffer and then added (1:10 final dilution) to hyaluronate and incubated for a further one hour at 37° C. Activity was determined using the reducing sugar assay (described above) and is expressed as a percentage of controls without heparin. […]” for “heparin.”

whole blood = assay: Whole blood clotting time after incubation of heparin with or without leech hyaluronidase
Protocol: Heparin (0-150 USP/ml) was incubated for one hour at […] either with or without leech hyaluronidase (50 IU/ml) and in 20 mM MES, 0.1M NaCl, pH 5.0 buffer; then whole blood was added to determine the effect on clottability.

Rats = assay: Indian ink spreading after subcutaneous injection in rats; format: in vivo, rat; conditions: heparin 250 to 2500 USP/ml with leech hyaluronidase
Protocol: Leech hyaluronidase (100 IU/ml) was mixed 1:1 with Indian ink in 20 mM MES, 0.1M NaCl pH 5.0, buffer in the presence or absence of heparin (250 to 2500 USP/ml). Rats were injected subcutaneously with 50 microlitres of this mixture and spreading allowed to occur over a period of 1 to 3 hours. The rats were sacrificed and the skin removed for observation of the area of spreading.

leech hyaluronidase [3] = assay: Leech hyaluronidase activity with heparin, with and without hementin; format: biochemical; conditions: 60 min
Protocol: as §1
B) Leech hyaluronidase (75 IU/ml) was mixed with and without hementin (180 IU/ml) (where IU is defined as one microgram of fibrinogen incoagulated/min/37° C.) end incubated with heparin (1.5-1500 USP/ml) for one hour at 25° C. prior to addition to hyaluronic acid (2 mg/ml) and further incubation for one hour at 37° C. Reducing sugar levels were determined (see Example 1) and the results expressed as a percentage of controls containing no heparin. (Table 3).

[4] = Clotting time of patient plasma before and after heparinisation; format: in vivo, human; conditions: patient plasma after heparinisation with 30,000 USP/24 h; 40 seconds before
Protocol: B) Leech hyaluronidase (200 IU/ml) was preincubated for one hour at 25° C. with and without plasma and heparinised plasma in 20 mM MES, 0.1M NaCl, pH 5.0 buffer. Plasma was obtained from a patient before and after heparinisation with 30,000 USP/24 h resulting in an increase in the clotting time of 40 seconds to 80 seconds. Incubations were continued by addition to hyaluronic acid (see section A, above) and reducing sugars determined as above (Example 1).

[5] = test system: mammalian testicular hyaluronidase; conditions: Mathews & Dorfman, Physiological Review, 35; cited from earlier work
leech hyaluronidase [6] = assay: Leech hyaluronidase activity in the presence of tPA with and without heparin; format: biochemical; conditions: tPA range of concentrations; presence or absence of heparin 200 USP/ml; FIG. 5
Protocol: as §1
A) Leech hyaluronidase (68 IU/ml) was mixed with and without heparin (200 USP/ml) and human tissue plasminogen activator (tPA) in a range of concentrations ([…]) and with hyaluronic acid (5 mg/ml) and incubated for 1 h at 37° C. Reducing sugars were determined (Example 1) and results expressed as a percentage of controls containing no tPA.

- leech hyaluronidase activity, percentage of control incubations containing no heparin (leech hyaluronidase [1]): no significant effect
- mammalian testicular hyaluronidase activity, percentage of controls without heparin [2]: completely inhibited
- leech hyaluronidase activity, % Control (no heparin) (leech hyaluronidase [3]; Heparin 1.5 USP/ml, With Hementin (180 IU/ml)): 103%
- leech hyaluronidase activity, % Control (no heparin) (leech hyaluronidase [3]; Heparin 1.5 USP/ml, Without Hementin): 97.5%
- leech hyaluronidase activity, % Control (no heparin) (leech hyaluronidase [3]; Heparin 15 USP/ml, With Hementin (180 IU/ml)): 93.8%
- leech hyaluronidase activity, % Control (no heparin) (leech hyaluronidase [3]; Heparin 15 USP/ml, Without Hementin): 100%
- leech hyaluronidase activity, % Control (no heparin) (leech hyaluronidase [3]; Heparin 150 USP/ml, With Hementin (180 IU/ml)): 100%
- leech hyaluronidase activity, % Control (no heparin) (leech hyaluronidase [3]; Heparin 150 USP/ml, Without Hementin): 103%
- leech hyaluronidase activity, % Control (no heparin) (leech hyaluronidase [3]; Heparin 1500 USP/ml, With Hementin (180 IU/ml)): 109%
- leech hyaluronidase activity, % Control (no heparin) (leech hyaluronidase [3]; Heparin 1500 USP/ml, Without Hementin): 103%
Substance: Heparin
- Whole Blood Clotting Time (whole blood; Heparin 1.0 USP/ml, Leech Enzyme (50IU/ml)): 14.5 min
- Whole Blood Clotting Time (whole blood; Heparin 1.0 USP/ml, without leech enzyme): 14.5 min
- Whole Blood Clotting Time (whole blood; Heparin 2.5 USP/ml, Leech Enzyme (50IU/ml)): 24.5 min
- Whole Blood Clotting Time (whole blood; Heparin 2.5 USP/ml, without leech enzyme): 24.0 min
- Whole Blood Clotting Time (whole blood; Heparin 5 USP/ml, Leech Enzyme (50IU/ml)): NC (no clot formation before 20 minutes at 37° C.)
- Whole Blood Clotting Time (whole blood; Heparin 5 USP/ml, without leech enzyme): NC (no clot formation before 20 minutes at 37° C.)
- Whole Blood Clotting Time (whole blood; Heparin 10 USP/ml, Leech Enzyme (50IU/ml)): NC (no clot formation before 20 minutes at 37° C.)
- Whole Blood Clotting Time (whole blood; Heparin 10 USP/ml, without leech enzyme): NC (no clot formation before 20 minutes at 37° C.)
- Whole Blood Clotting Time (whole blood; Heparin 20 USP/ml, Leech Enzyme (50IU/ml)): NC (no clot formation before 20 minutes at 37° C.)
- Whole Blood Clotting Time (whole blood; Heparin 20 USP/ml, without leech enzyme): NC (no clot formation before 20 minutes at 37° C.)
- effect of heparin on enzyme-induced ink spreading (Rats): not significantly affected
- clotting time [4]: 80 s
- inhibition of mammalian testicular hyaluronidase by heparin [5]: inhibited competitively

Substance: tPA: human tissue plasminogen activator, a clot-lytic agent
- leech hyaluronidase activity, percentage of controls containing no tPA (leech hyaluronidase [6]): no effect
